Data from patent US20240279202A1 (NURIX THERAPEUTICS, INC., priority 2021, published 2024).

How the values were obtained:
ITK = target: T1, ITK (Homo sapiens, UniProt Q08881); test: ITK degradation HiBiT assay; format: cell-based; set-up: expressed in transfected cells; host or cells: Molt4 (ATCC CRL-1552), monoclonal clone 1C10, engineered to carry the HiBiT tag; conditions: 4 hrs; for DC50: C-terminal HiBiT-tagged Molt4 cells; for Dmax: MOLT-4, C-terminal HiBiT-tagged Molt4 cells
T1 sequence (Q08881 1-620): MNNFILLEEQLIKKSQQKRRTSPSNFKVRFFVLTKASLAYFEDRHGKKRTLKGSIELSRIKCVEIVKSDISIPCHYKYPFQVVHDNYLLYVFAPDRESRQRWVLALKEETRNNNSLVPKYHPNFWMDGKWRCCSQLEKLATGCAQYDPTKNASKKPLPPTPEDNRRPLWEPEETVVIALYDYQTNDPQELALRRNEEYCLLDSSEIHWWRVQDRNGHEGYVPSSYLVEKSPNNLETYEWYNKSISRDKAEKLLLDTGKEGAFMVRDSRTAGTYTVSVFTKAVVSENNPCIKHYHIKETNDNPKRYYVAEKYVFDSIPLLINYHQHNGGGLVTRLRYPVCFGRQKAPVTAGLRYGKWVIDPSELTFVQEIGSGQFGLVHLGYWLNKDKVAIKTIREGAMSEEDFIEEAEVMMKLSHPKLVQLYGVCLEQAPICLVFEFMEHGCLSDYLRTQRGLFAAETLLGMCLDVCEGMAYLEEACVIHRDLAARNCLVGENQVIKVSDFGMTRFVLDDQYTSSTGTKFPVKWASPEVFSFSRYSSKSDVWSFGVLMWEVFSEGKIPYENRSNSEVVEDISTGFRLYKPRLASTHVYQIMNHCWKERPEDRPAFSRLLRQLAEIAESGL
Procedure, shortened: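 C-terminal HiBiT-tagged Molt4 cells (clone 1C10) treated 4 h at 32° C with an 11-point, 5-fold compound dilution series (0.5% DMSO). HiBiT lytic detection with LgBiT then luminescence read; % ITK remaining versus concentration fit by four-parameter variable-slope model to give DC50 and Dmax.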

[1] = Mouse PK analysis (blood/plasma concentration after oral administration); format: in vivo; conditions: mouse, mice, oral, plasma; for concentration at 1 h / concentration at 2 h / concentration at 6 h: 90 mg/kg; for concentration at 1 h: read-out: Cal. Conc. Total (μM) 1 h; for concentration at 2 h: read-out: Cal. Conc. Total (μM) 2 h; for concentration at 6 h: read-out: Cal. Conc. Total (μM) 6 h
Procedure, shortened: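 Mice were dosed by oral gavage at 90 mg/kg with blood sampled at 1, 2 and 6 h; a second study used oral dosing with plasma taken at 6 or 24 h. Plasma levels were measured by LC/MS/MS (acetonitrile precipitation, internal-standard curve, positive ESI MRM), and Cmax, Tmax and AUClast were derived by noncompartmental analysis.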

| DC50 (ITK) [nM] | Dmax (ITK) [%] | AUC(0-t) [1] [µM·h] | Cmax [1] [nM] | Tmax [1] [h] | concentration at 1 h [1] [µM] | concentration at 2 h [1] [µM] | concentration at 6 h [1] [µM] | Compound |
| --- | --- | --- | --- | --- | --- | --- | --- | --- |
| 1.3 | 74 | 0.7 | 188 | 4 |  |  |  | C[C@@H](C(=O)N(C)c1ccc2cc(-c3n[nH]c4c3CCC(C)(C)C4)[nH]c2c1)N1CCN(C[C@H]2CCN(c3ccc4c(c3)n(C)c(=O)n4C3CCC(=O)NC3=O)C2)CC1 (stereo partly drawn) [Compound 5, (2S)—N-(2-(6,6-dimethyl-4,5,6,7-tetrahydro-1H-indazol-3-yl)-1H-indol-6-yl)-2-(4-(((3R)-1-(1-(2,6-dioxopiperidin-3-yl)-3-methyl-2-oxo-2,3-dihydro-1H-benzo[d]imidazol-5-yl)pyrrolidin-3-yl)methyl)piperazin-1-yl)-N-methylpropanamide] |
| 2.3 | 64 | 0.54 | 127 | 2 |  |  |  | C[C@@H](C(=O)N(C)c1ccc2cc(-c3n[nH]c4c3CCC(C)(C)C4)[nH]c2c1)N1CCN(C[C@@H]2CCN(c3ccc4c(c3)n(C)c(=O)n4C3CCC(=O)NC3=O)C2)CC1 (stereo partly drawn) [Compound 4, (2S)—N-(2-(6,6-dimethyl-4,5,6,7-tetrahydro-1H-indazol-3-yl)-1H-indol-6-yl)-2-(4-(((3S)-1-(1-(2,6-dioxopiperidin-3-yl)-3-methyl-2-oxo-2,3-dihydro-1H-benzo[d]imidazol-5-yl)pyrrolidin-3-yl)methyl)piperazin-1-yl)-N-methylpropanamide] |
| 0.55 | 71 | 1.74 | 526 | 4 |  |  |  | C[C@@H](C(=O)N(C)c1ccc2cc(-c3n[nH]c4c3C[C@@H]3C(F)(F)[C@]3(C)C4)[nH]c2c1)N1CCN(CC2CCN(c3ccc(C(=O)NC4CCC(=O)NC4=O)nc3)CC2)CC1 (stereo partly drawn) [Compound 66, 5-(4-((4-((S)-1-((2-((4aS,5aR)-5,5-difluoro-5a-methyl-1,4,4a,5,5a,6-hexahydrocyclopropa[f]indazol-3-yl)-1H-indol-6-yl)(methyl)amino)-1-oxopropan-2-yl)piperazin-1-yl)methyl)piperidin-1-yl)-N-(2,6-dioxopiperidin-3-yl)picolinamide] |
| 4.4 | 90 |  |  |  | 0.041 | 0.039 | 0.059 | CN(C(=O)CCN1CCN(c2ccc3c(c2)C(=O)N(C2CCC(=O)NC2=O)C3=O)CC1)c1ccc2cc(-c3n[nH]c4c3CCC(C)(C)C4)[nH]c2c1 (stereo not drawn) [Compound 2, N-(2-(6,6-dimethyl-4,5,6,7-tetrahydro-1H-indazol-3-yl)-1H-indol-6-yl)-3-(4-(2-(2,6-dioxopiperidin-3-yl)-1,3-dioxoisoindolin-5-yl)piperazin-1-yl)-N-methylpropanamide] |
| 14 | 79 | 9.38 | 2130 | 4 |  |  |  | Cn1c(=O)n([C@H]2CCC(=O)NC2=O)c2cccc(N3CCC(CN4CCN(C(=O)c5ccc6cc(-c7n[nH]c8c7CCC(C)(C)C8)[nH]c6c5)CC4)CC3)c21 [Compound 46, (S)-3-(4-(4-((4-(2-(6,6-dimethyl-4,5,6,7-tetrahydro-1H-indazol-3-yl)-1H-indole-6-carbonyl)piperazin-1-yl)methyl)piperidin-1-yl)-3-methyl-2-oxo-2,3-dihydro-1H-benzo[d]imidazol-1-yl)piperidine-2,6-dione] |
| 10.4 | 88 |  |  |  | 1.6 | 1.7 | 0.7 | CN(C(=O)CCC1CCN(c2ccc3c(c2)C(=O)N(C2CCC(=O)NC2=O)C3=O)C1)c1ccc2cc(-c3n[nH]c4c3CCC(C)(C)C4)[nH]c2c1 (stereo not drawn) [Compound 1, N-(2-(6,6-dimethyl-4,5,6,7-tetrahydro-1H-indazol-3-yl)-1H-indol-6-yl)-3-(1-(2-(2,6-dioxopiperidin-3-yl)-1,3-dioxoisoindolin-5-yl)pyrrolidin-3-yl)-N-methylpropanamide] |
